Data taken from patent US7442681B2, “Method of inhibiting vascular permeability” (University of Virginia Patent Foundation, priority 2004, dated 2008).
Where no end group is shown, it is not given here.

How the values were obtained:
[1] = tested on: myosin light chain (MLC); assay: MLC phosphorylation, Western blot, BAEC; assay type: cell-based, bovine; conditions: 25 ng/ml VEGF, 20 μg/ml peptide or 5 μM ML7
Description: FIG. 6. Regulation of myosin light chain (MLC) phosphorylation by PAK. FIG. 6A: confluent BAEC on FN were treated with vehicle only (+vehicle), 20 μg/ml control peptide (+con pep), 20 μg/ml PAK-blocking peptide (+PAK pep; SEQ ID NO:1), 5 μM ML7 (+ML7) with (+) or without (−) 25 ng/ml VEGF. […] FIG. 6B: as described in A, BAEC were pretreated with 20 μg/ml control peptide (+con pep) or PAK-blocking peptide (+PAK pep) followed by 25 ng/ml of VEGF, 25 ng/ml bFGF, 10 μM histamine, 0.1 units/ml thrombin, or 10 ng/ml of TNF. Upper row, anti-phospho-MLC (pMLC); middle row, total MLC (total MLC); and lower row, pMLC plus an antigenic phospho-peptide (pMLC+AP). […]
Western Blots—Confluent cells were starved in 0.5% serum for 18 h, treated as described in the legends to FIGS. 1, 2, 3 and 6, washed with cold PBS, and then harvested by scraping in cold lysis buffer (25 mM Tris, pH 7.4, 1% Nonidet P-40, 0.5% sodium deoxycholate, 137 mM NaCl, 50 μM EDTA, 10 μg/ml each aprotinin and leupeptin, 1 mM phenylmethylsulfonyl fluoride). […] Protein was transferred to polyvinylidene difluoride membrane, and blots were probed with primary antibodies (described under “Fluorescence Imaging”) followed by horseradish peroxidase-conjugated secondary antibodies (Jackson ImmunoResearch, Inc.). […]

[2] = tested on: murine lungs; assay: Histology of murine lungs treated with peptide and LPS; assay type: in vivo; conditions: mice, peptide 1 mg ip, no LPS
Description: FIG. 9. Histology of murine lungs treated with PAK blocking peptide and LPS. FIGS. 9A (200× magnification), 9B (400×), and 9C (200×) represent photomicrographic images. […] There is some phosphoPAK staining (visible as brown stain in the original color micrographs) present in epithelial structures, alveolar walls (composed of mixed cell types), and vessel endothelium and smooth muscle. Arrow indicates a normal small vessel with red blood cells and few circulating leukocytes. Tissues were counterstained with hematoxylin.
FIG. 10. Histology of murine lungs treated with PAK blocking peptide and LPS. FIGS. 10A (200× magnification), 10B (400×), and 10C (200×) represent photomicrographic images. […] Vessel sections (arrow) indicate that LPS highly increases the amount of pPAK in vessel walls, and also produces inflammatory enlargement of vessels, with an increase in numbers of recruited neutrophils and monocytes admixed with red blood cells and intravasating through vessel walls, an indicator of acute inflammation. Some alveolar tissues are completely eroded and filled with exudate and dead cells (FIG. 10C). Tissues were counterstained with hematoxylin.
FIG. 11. Histology of murine lungs treated with PAK blocking peptide and LPS. FIGS. 11A (200× magnification), 11B (400×), and 11C (200×) represent photomicrographic images. […]

[3] = tested on: BAEC; assay: Paracellular pore formation assay, BAEC on filters; assay type: cell-based, bovine; conditions: with or without VEGF
Description: FIG. 5. Effects of PAK on remodeling of cell-cell junctions and the actin cytoskeleton. FIG. 5A: confluent BAECs on coverslips were serum-starved for 18 hours and then treated with 25 ng/ml VEGF. The cells were fixed and stained for phospho-PAK and F-actin. Images show phospho-PAK (pPAK) and F-actin (F-actin) at the indicated times after the addition of VEGF. White arrows indicate pores between cells. Scale bar=50μ. FIG. 5B: phospho-PAK (pPAK) and F-actin (F-actin) are shown in cells prepared and treated as described in FIG. 5A after 60 minutes with VEGF with peptide additions. […]
Monolayer Permeability and Paracellular Pore Formation Assays—Cells were plated onto FN-coated polycarbonate membranes (3.0-μ pore size; Transwell, Costar) at 6×10^4 cells/cm^2 and cultured for 4 days with medium changes every other day until confluence was reached. […] Medium was harvested from the lower chamber, and HRP activity was determined calorimetrically by absorbance at 490 nm to detect the […] reaction product after 15 minutes of incubation with 0.5 mM guaiacol, 50 mM Na2HPO4, and 0.6 mM H2O2. […] To quantify paracellular pore formation and correlate to permeability, the fixed cell monolayer-covered filters were stained for 2 hours with Coomassie Blue (0.25% in 1:1:2 of methanol:glacial acetic acid:double distilled (dd)H2O), destained in the same solution minus dye, rinsed in ddH2O, and air-dried. […]

Molecule: O=S(=O)(c1cccc2c(I)cccc12)N1CCCNCC1 [ML7]
- MLC phosphorylation induced by VEGF [1]: inhibited

Molecule: YGRKKRRQRRRGKPPAPPMRNTSTM [PAK-blocking peptide]
- lung histology, peptide-only [2]: equivalent to untreated mice

B1: PAK AID: PAK autoinhibitory domain, residues 83-149, cloned into the pDsRed1-N1 vector and expressed by transient transfection (protein, UniProt Q13153 83-149, looked up, fragment)
chain: HTIHVGFDAVTGEFTGMPEQWARLLQTSNITKSEQKKNPQAVLDVLEFYNSKKTSNSQKYMSFTDKS
modifications: DsRed fusion
- formation of pores between adjacent cells [3]: inhibited pore formation
